Laboratory results reported in US11919918B2, “P2X3 andor P2X2/3 receptor antagonist, pharmaceutical composition comprising same, and use thereof” (BEIJING TIDE PHARMACEUTICAL CO., LTD., priority 2017, dated 2024).

Experiments:
[1] = biological target: human P2X2/3 receptor (Homo sapiens (Human), UniProt P56373+Q9UBL9); assay: Inhibitory activity on human P2X2/3 receptor (calcium 6 dye FLIPR assay, agonist α,β-MeATP); assay type: cell-based; conditions: HEK293-P2X2/3 stably expressing cell line, FLIPR Tetra
Chain of human P2X2/3 receptor (Q9UBL9 whole entry): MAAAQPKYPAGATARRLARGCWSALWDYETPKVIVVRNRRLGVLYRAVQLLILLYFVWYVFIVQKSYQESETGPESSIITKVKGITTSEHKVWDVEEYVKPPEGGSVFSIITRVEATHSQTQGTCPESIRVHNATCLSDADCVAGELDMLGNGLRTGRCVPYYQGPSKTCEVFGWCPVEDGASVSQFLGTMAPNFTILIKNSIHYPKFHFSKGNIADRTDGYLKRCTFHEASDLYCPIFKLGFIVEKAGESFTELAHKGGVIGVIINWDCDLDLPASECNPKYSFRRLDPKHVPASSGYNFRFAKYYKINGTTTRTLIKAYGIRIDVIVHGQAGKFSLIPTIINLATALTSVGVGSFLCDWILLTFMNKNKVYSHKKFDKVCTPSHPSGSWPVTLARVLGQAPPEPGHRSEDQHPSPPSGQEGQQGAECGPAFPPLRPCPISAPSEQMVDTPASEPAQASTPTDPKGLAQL
Chain of human P2X2/3 receptor (P56373 whole entry): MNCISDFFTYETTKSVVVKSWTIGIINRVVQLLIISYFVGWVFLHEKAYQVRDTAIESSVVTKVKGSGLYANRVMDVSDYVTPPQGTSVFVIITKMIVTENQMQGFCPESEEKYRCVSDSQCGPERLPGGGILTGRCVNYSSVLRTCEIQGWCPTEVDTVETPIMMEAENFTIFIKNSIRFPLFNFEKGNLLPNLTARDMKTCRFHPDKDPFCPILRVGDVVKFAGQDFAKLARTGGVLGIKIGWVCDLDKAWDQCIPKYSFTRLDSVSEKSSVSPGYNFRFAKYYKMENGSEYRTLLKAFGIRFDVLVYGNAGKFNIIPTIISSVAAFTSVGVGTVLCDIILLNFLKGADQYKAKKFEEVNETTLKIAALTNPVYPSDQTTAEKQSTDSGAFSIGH
Method: (§1) Biological Assay: Determination of the Inhibitory Activity of the Compounds on Human P2X3 and P2X2/3 Receptors
(§2) Cells were seeded into a poly-D-lysine-coated 384-well cell culture plate (Corning) at a density of 11,000 cells/well/25 μL of cell inoculation medium, and were cultured in a cell incubator overnight. On the day of the test, the calcium 6 dye was diluted to a 2× concentration with a assay buffer, 25 μL of the 2× calcium 6 dye was added to the 384-well cell culture plate, which was incubated at 37° C. for 2 hours, and then placed at room temperature for further use. The test compound and the agonist, α,β-MeATP were diluted to a 7× concentration with the assay buffer, 10 μL of the 7× test compound was added to the 384-well cell culture plate, which was incubated at room temperature for 15 minutes, and 10 μL of the 7× α,β-MeATP was transferred into the 384-well cell culture plate. The data were measured and analyzed using FLIPR Tetra, and the half inhibitory concentration (IC50) of the test compound on P2X3 and P2X2/3 receptors was calculated with the GraphPad Prism four-parameter equation.
(§3) Cell lines: human embryonic kidney cells HEK293-P2X3 and HEK293-P2X2/3 stably expressing cell lines;
(§4) Complete cell culture medium: DMEM High Glucose (Life Technology), which contained 10% fetal bovine serum, 4 mM GlutaMAX, 1% penicillin-streptomycin, and 350 μg/mL G418;
(§5) Cell inoculation medium: DMEM High Glucose (Life Technology), which contained 2% fetal bovine serum, and 4 mM GlutaMAX;
(§6) Cell culture conditions: 37° C., 5% CO2;
(§7) Assay buffer: HBSS (containing calcium and magnesium ions), which contained 20 mM HEPES;
(§8) Detection equipment: FLIPR Tetra (Molecular Devices);

[2] = biological target: human P2X3 receptor (Homo sapiens (Human), UniProt P56373); assay: Inhibitory activity on human P2X3 receptor (calcium 6 dye FLIPR assay, agonist α,β-MeATP); assay type: cell-based; conditions: HEK293-P2X3 stably expressing cell line, FLIPR Tetra
Chain of human P2X3 receptor (P56373 whole entry): as above
Method: as §1, §2, §3, §4, §5, §6, §7, §8

Molecule CC(C)c1cnc(Br)cc1Oc1cnc(NC(CO)CO)nc1N [Compound C111, 2-((4-amino-5-((2-bromo-5-isopropyl-pyridin-4-yl)oxy)pyrimidin-2-yl)amino) propane-1,3-diol] has an IC50 [1] of 129 nM and an IC50 [2] of 104 nM.

Work on CCSc1cc(Oc2cnc(N)nc2N)c(C(C)C)cn1 [Compound C117, 5-((2-(ethylthio)-5-isopropylpyridin-4-yl)oxy)pyrimidine-2,4-diamine] yielded an IC50 [1] of 487 nM and an IC50 [2] of 151 nM.

For CCNc1cc(Oc2cnc(N)nc2N)c(C(C)C)cn1 [Compound C118, 5-((2-(ethylamino)-5-isopropylpyridin-4-yl)oxy) pyrimidine-2,4-diamine], the IC50 [1] was 366 nM and the IC50 [2] was 142 nM.

With CC(C)c1cnc(NC2CC2)cc1Oc1cnc(N)nc1N [Compound C119, 5-((2-(cyclopropylamino)-5-isopropylpyridin-4-yl)oxy)pyrimidine-2,4-diamine] the IC50 [1] was 505 nM and the IC50 [2] was 540 nM.

With CCc1cc(Sc2cnc(N)nc2N)c(C(C)C)cn1 [Compound C127, 5-((2-ethyl-5-isopropylpyridin-4-yl)thio)pyrimidine-2,4-diamine] the IC50 [1] was 234 nM and the IC50 [2] was 147 nM.

CC(C)c1cnc([Si](C)(C)C)cc1Oc1cnc(N)nc1N [Compound C133, 5-((5-isopropyl-2-(trimethylsilyl)pyridin-4-yl)oxy)pyrimidine-2,4-diamine] gave an IC50 [1] of 770 nM and an IC50 [2] of 1440 nM.

CC#Cc1cc(Oc2cnc(N)nc2N)c(C(C)C)cn1 [Compound C134, 5-((5-isopropyl-2-(prop-1-yn-1-yl)pyridin-4-yl)oxy) pyrimidine-2,4-diamine] gave an IC50 [1] of 685 nM and an IC50 [2] of 391 nM.

CC(C)c1cnc(C#Cc2ccccc2)cc1Oc1cnc(N)nc1N [Compound C135, 5-((5-isopropyl-2-(phenyl-ethynyl)pyridin-4-yl)oxy) pyrimidine-2,4-diamine] showed an IC50 [1] of 488 nM and an IC50 [2] of 303 nM.

In the case of COc1ccc(C#Cc2cc(Oc3cnc(N)nc3N)c(C(C)C)cn2)cc1 [Compound C136, 5-((5-isopropyl-2-((4-methoxyphenyl)ethynyl)pyridin-4-yl)oxy) pyrimidine-2,4-diamine], the IC50 [1] is reported as 416 nM and the IC50 [2] is reported as 270 nM.

With CC(C)c1cnc(C#Cc2ccc(C#N)cc2)cc1Oc1cnc(N)nc1N [Compound C137] the IC50 [1] was 567 nM and the IC50 [2] was 503 nM.

For CC(C)c1cnc(C#CC2CC2)cc1Oc1cnc(N)nc1N [Compound C142, 5-((2-(cyclo-propylethynyl)-5-isopropylpyrdin-4-yl)oxy) pyrimidine-2,4-diamine], the IC50 [1] was 549 nM and the IC50 [2] was 302 nM.

COc1cc(OC)c(C#Cc2cc(Oc3cnc(N)nc3N)c(C(C)C)cn2)c(OC)c1 [Compound C145, 5-((5-isopropyl-2-((2,4,6-trimethoxyphenyl)ethynyl)pyridin-4-yl)oxy)pyrimidine-2,4-diamine] gave an IC50 [1] of 623 nM and an IC50 [2] of 809 nM.

With CC(C)c1cnc(C#Cc2ccc(N(C)C)cc2)cc1Oc1cnc(N)nc1N [Compound C148, 5-((2-((4-(dimethylamino)phenyl)ethynyl)-5-isopropylpyridin-4-yl)oxy) pyrimidine-2,4-diamine] the IC50 [1] was 113 nM and the IC50 [2] was 215 nM.

CC(C)c1cnc(C#Cc2cccc3cccnc23)cc1Oc1cnc(N)nc1N [Compound C149, 5-((5-isopropyl-2-(quinolin-8-ylethynyl)pyridin-4-yl)oxy)pyrimidine-2,4-diamine] was tested, and the IC50 [1] was 266 nM and the IC50 [2] was 130 nM.

With CC(C)c1cnc(C#Cc2ccccn2)cc1Oc1cnc(N)nc1N [Compound C150, 5-((5-isopropyl-2-(pyridin-2-ylethynyl)pyridin-4-yl)oxy)pyrimidine-2,4-diamine] the IC50 [1] was 232 nM and the IC50 [2] was 211 nM.

For CC(C)c1cnc(C#Cc2ccncc2)cc1Oc1cnc(N)nc1N [Compound C151, 5-((5-isopropyl-2-(pyridin-4-ylethynyl)pyridin-4-yl)oxy)pyrimidine-2,4-diamine], the IC50 [1] was 961 nM and the IC50 [2] was 590 nM.

CC(C)c1cnc(NCC(F)(F)F)cc1Oc1cnc(N)nc1N [Compound C152] gave an IC50 [1] of 375 nM and an IC50 [2] of 211 nM.

Work on CC(C)c1cnc(Br)cc1Oc1cnc(N)nc1NC(CO)CO [Compound C153, 2-((2-amino-5-((2-bromo-5-isopropylpyridin-4-yl)oxy)pyrimidin-4-yl)amino) propane-1,3-diol] yielded an IC50 [1] of 96 nM and an IC50 [2] of 83 nM.

For CCN(C)CCNc1nc(N)ncc1Oc1cc(Br)ncc1C(C)C [Compound C154, 5-((2-bromo-5-isopropylpyridin-4-yl)oxy)-N^4-(2-(ethyl(methyl)amino)ethyl)pyrimidine-2,4-diamine], the IC50 [1] was 46 nM and the IC50 [2] was 72 nM.

CC(C)c1cnc(CN)cc1Oc1cnc(N)nc1N [Compound C157, 5-((2-(aminomethyl)-5-isopropylpyridin-4-yl)oxy)pyrimidine-2,4-diamine] showed an IC50 [1] of 978 nM and an IC50 [2] of 736 nM.

In the case of C=Cc1cnc(OC)cc1Oc1cnc(N)nc1N [Compound C162, 5-((2-methoxy-5-vinylpyridin-4-yl)oxy) pyrimidine-2,4-diamine], the IC50 [1] is reported as 429 nM and the IC50 [2] is reported as 296 nM.

In the case of C=C(C)c1cnc(OC)cc1Oc1cnc(N)nc1N [Compound C164, 5-((2-methoxy-5-(prop-1-en-2-yl)pyridin-4-yl)oxy) pyrimidine-2,4-diamine], the IC50 [1] is reported as 71 nM and the IC50 [2] is reported as 46 nM.

CCc1cnc(OC)cc1Oc1cnc(N)nc1N [Compound C165, 5-((5-ethyl-2-methoxy-pyridin-4-yl)oxy) pyrimidine-2,4-diamine] was tested, and the IC50 [1] was 338 nM and the IC50 [2] was 163 nM.

In the case of CNc1nc(N)ncc1Oc1cc(Br)ncc1C(C)C [Compound C172, 5-((2-bromo-5-isopropylpyridin-4-yl)oxy)-N^4-methyl-pyrimidine-2,4-diamine], the IC50 [1] is reported as 209 nM and the IC50 [2] is reported as 116 nM.

CCNc1nc(N)ncc1Oc1cc(Br)ncc1C(C)C [Compound C173, 5-((2-bromo-5-isopropylpyridin-4-yl)oxy)-N^4-ethylpyrimidine-2,4-diamine] gave an IC50 [1] of 259 nM and an IC50 [2] of 188 nM.

Molecule CC(C)Nc1nc(N)ncc1Oc1cc(Br)ncc1C(C)C [Compound C174, 5-((2-bromo-5-isopropylpyridin-4-yl)oxy)-N^4-isopropyl-pyrimidine-2,4-diamine] has an IC50 [1] of 145 nM and an IC50 [2] of 100 nM.

CC(C)c1cnc(Br)cc1Oc1cnc(N)nc1NCCO [Compound C175, 2-((2-amino-5-((2-bromo-5-isopropylpyridin-4-yl)oxy)pyrimidin-4-yl)amino)ethanol.] was tested, and the IC50 [1] was 141 nM and the IC50 [2] was 108 nM.

Molecule COc1cc(Oc2cnc(N)nc2N)c(C)cn1 [Compound C176, 5-((2-methoxy-5-methylpyridin-4-yl)oxy) pyrimidine-2,4-diamine] has an IC50 [1] of 984 nM and an IC50 [2] of 611 nM.

CC(C)c1cnc(Br)cc1Oc1cnc(N)nc1NC1CC1 [Compound C179, 5-((2-bromo-5-isopropylpyridin-4-yl)oxy)-N^4-cyclopropyl-pyrimidine-2,4-diamine] showed an IC50 [1] of 43 nM and an IC50 [2] of 51 nM.

Work on CC(C)c1cnc(Br)cc1Oc1cnc(N)nc1NC1CCCCC1 [Compound C180, 5-((2-bromo-5-isopropylpyridin-4-yl)oxy)-N^4-cyclohexyl-pyrimidine-2,4-diamine] yielded an IC50 [1] of 220 nM and an IC50 [2] of 207 nM.

In the case of CC(C)CNc1nc(N)ncc1Oc1cc(Br)ncc1C(C)C [Compound C181, 5-((2-bromo-5-isopropylpyridin-4-yl)oxy)-N^4-isobutyl-pyrimidine-2,4-diamine], the IC50 [1] is reported as 78 nM and the IC50 [2] is reported as 84 nM.

CC(C)CNc1nc(N)ncc1Oc1cc(C2CC2)ncc1C(C)C [Compound C194, 5-((2-cyclopropyl-5-isopropyl-pyridin-4-yl)oxy)-N^4-isobutyl-pyrimidine-2,4-diamine] was tested, and the IC50 [1] was 446 nM and the IC50 [2] was 322 nM.

C=C(C)c1cnc(OC)cc1Cc1cnc(N)nc1N [Compound C196, 5-((2-methoxy-5-(prop-1-en-2-yl)pyridin-4-yl)methyl)pyrimidine-2,4-diamine] gave an IC50 [1] of 652 nM and an IC50 [2] of 208 nM.

For CC(C)c1cnc(Br)cc1Oc1cnc(N)nc1NCCN [Compound C199, N^4-(2-aminoethyl)-5-((2-bromo-5-isopropylpyridin-4-yl)oxy)pyrimidine-2,4-diamine], the IC50 [1] was 333 nM and the IC50 [2] was 186 nM.

Work on CC(C)c1cnc(Br)cc1Oc1cnc(N)nc1NCCOCCO [Compound C201, 2-(2-((2-amino-5-((2-bromo-5-isopropylpyridin-4-yl)oxy)pyrimidin-4-yl)amino)ethoxy) ethanol] yielded an IC50 [1] of 498 nM and an IC50 [2] of 316 nM.

For CNCCNc1nc(N)ncc1Oc1cc(Br)ncc1C(C)C [Compound C202, 5-((2-bromo-5-isopropylpyridin-4-yl)oxy)-N^4-(2-(methylamino)ethyl)pyrimidine-2,4-diamine], the IC50 [1] was 166 nM and the IC50 [2] was 103 nM.

Work on CC(C)c1cnc(Br)cc1Oc1cnc(N)nc1NCCN1CCOCC1 [Compound C203, 5-((2-bromo-5-isopropylpyridin-4-yl)oxy)-N^4-(2-morpholinoethyl) pyrimidine-2,4-diamine] yielded an IC50 [1] of 275 nM and an IC50 [2] of 157 nM.
